# Assay results published in ChEMBL document CHEMBL3853345, “Gabosines P and Q, new carbasugars from Streptomyces sp. and their α-glucosidase inhibitory activity” (Bioorg Med Chem Lett, 2016).
# What was measured:
# [1] = Inhibition of alpha-glucosidase (unknown origin) assessed as reduction in PNP release using PNPG as substrate preincubated for 10 mins followed by substrate addition measured after 40 mins by spectrophotometric method; set-up: species or system Homo sapiens
# Homo sapiens = species on record: Homo sapiens; assay: Potency index, ratio of acarbose IC50 to compound IC50 for alpha-glucosidase (unknown origin)
SMILES,IC50 [1],Ratio IC50 (Homo sapiens)
C[C@H]1O[C@H](O[C@H]2[C@H](O)[C@@H](O)[C@@H](O[C@H]3[C@H](O)[C@@H](O)C(O)O[C@@H]3CO)O[C@@H]2CO)[C@H](O)[C@@H](O)[C@@H]1N[C@H]1C=C(CO)[C@@H](O)[C@H](O)[C@H]1O (stereo partly drawn) [ACARBOSE],663 µM,–
CC(=O)O[C@H]1C=C(CO)C(=O)[C@H](O)[C@H]1O,9.07 µM,70
